Columns and labels:
[1] = tested on: EpiSCs; assay: Conversion of EpiSCs to mESC-like state by chemical compounds (colony morphology, ALP, selection); assay type: cell-based, murine; conditions: for effect on EpiSCs under mESC culture condition supplemented with LIF: feeder cells, 0.5 μM A-83-01, 0.5 μM PD0325901, 0.1 μM PD173074, 3 μM CHIR99021 where present
Protocol: EpiSCs differentiated in conventional mESC growth medium supplemented with LIF (bottom left); EpiSCs differentiated in conventional mESC growth medium supplemented with LIF and 0.5 μM MEK inhibitor PD0325901, 0.1 μM FGFR inhibitor PD173074 and 3 μM GSK3 inhibitor CHIR99021 (m/MFGi) (bottom right). […] EpiSCs were trypsinized to single cells, and plated on feeder cells under the mESC self-renewal condition with supplements of the indicated chemical compounds for about 4 days to induce conversion, followed by another 4 days of selection. The culture was subsequently replated and further selected and expanded for another two weeks, during which time stable clones were picked.
To test this hypothesis, EpiSCs were trypsinized to single cells and plated under mESC self-renewal conditions, based on the notion that “converted” mESC-like cells within EpiSC colonies would be captured/selected and expanded under the conditions that promote self-renewal of mESCs but induce differentiation of EpiSCs. […] Given that the “spontaneous” conversion from EpiSCs to mESCs might be very inefficient, a stronger and more stringent differential self-renewal promoting and differentiation inducing condition might be required to select/capture and expand those “rare” converted mESC-like cells from EpiSCs (e.g. achieving cleaner phenotypic distinction and minimizing the overgrowth of differentiated EpiSCs).
EpiSCs (line EpiSC-5, male) were maintained on irradiated CF1 MEFs in human ESC medium supplemented with 10 ng/ml bFGF as described previously (Tesar et al., Nature 448, 196-199, 2007). EpiSCs were passaged every 3-4 days with 1 mg/ml collagenase type IV (Invitrogen). The R1 mESCs were cultured on irradiated CF1 MEFs with conventional mESC growth media, which consist of Knockout DMEM (Invitrogen) supplemented with 20% KSR (Invitrogen), 0.1 mM 2-ME (Sigma-Aldrich), 2 mM L-glutamine (Invitrogen), 0.1 mM NEAA (Invitrogen), and 10^3 units/ml recombinant murine leukemia inhibitory factor (LIF) (ESGRO, Millipore). The mESCs and converted cells were passaged every 3 days as a single cell suspension using 0.05% trypsin/EDTA and seeded at 1.0×10^4 cells per cm^2 for routine culture.

[2] = tested on: riPSCs; assay: Maintaining the pluripotency of riPSCs in culture with small molecule combinations; assay type: cell-based, rat; conditions: 0.1 μM, added to the combination of PD0325901 and CHIR99021
Protocol: FIG. 5A-B. The effects of different small molecule combinations on maintaining the pluripotency of riPSCs in culture. riPSCs were trypsinized into single cells and seeded into 6-well plate at the density of 10^3 cells per well and treated with different inhibitor combinations. Five days latter, ALP staining was performed to visualize the riPSC colonies (A). The ALP positive colonies for each condition were counted from ten random 40× visual fields and the relative colony number was summarized in (B).
WB-F344, a diploid rat liver progenitor cell line (Grisham et al., Proc Soc Exp Biol Med 204, 270-279 (1993)), were transduced with Oct4, Sox2 and Klf4 by retroviruses and then split onto MEF feeder cells in the conventional mESC medium. Compact and alkaline phosphatase (ALP) positive ESC-like colonies were observed 10 days after transduction (the efficiency is about 0.4%) (FIG. 1A). […] Given the notion that small molecules can inhibit key differentiation-inducing pathways, we and others have previously identified and used small molecules to support mESC self-renewal in a more robust manner (Schugar et al., Gene Ther 15, 126-135 (2008); Xu et al., Nat Biotechnol 20, 1261-1264 (2002)). […]

[3] = tested on: BMP receptors; conditions: Tojo et al., 2005; cited from earlier work

Structure (SMILES): Cc1c[nH]c(-c2cnc(NCCNc3ccc(C#N)cn3)nc2-c2ccc(Cl)cc2Cl)n1 [CHIR99021]
- effect of adding CHIR99021 to the 2PD/LIF condition ([1]; 3 μM CHIR99021): did not promote or capture the conversion of EpiSCs to mESC-like state

Structure (SMILES): CCN(CC)CCCCNc1ncc2cc(-c3cc(OC)cc(OC)c3)c(NC(=O)NC(C)(C)C)nc2n1 [PD173074]
- effect of including PD173074 in medium [2]: didn't show further benefit

Structure (SMILES): N[C@@H]1C[C@H]1c1ccccc1 [parnate]
- effect on EpiSCs under mESC culture condition supplemented with LIF [1]: form more compact and domed colonies that express ALP
- EpiSCs that formed small and compact colonies ([1]; four days of 2 μM parnate treatment, mESC growth condition): 70-80%
- cells that survived the selection as domed and ALP positive colonies ([1]; parnate-treated cells selected with 2PD/LIF): roughly 20%

Structure (SMILES): Cc1cccc(-c2nn(C(=S)Nc3ccccc3)cc2-c2ccnc3ccccc23)n1 [A-83-01, 3-(6-Methyl-2-pyridinyl)-N-phenyl-4-(4-quinolinyl)-1H-pyrazole-1-carbothioamide]
- cross inhibitory effect on the BMP receptors [3]: no cross inhibitory effect
- effect on EpiSCs under EpiSC/hESC culture condition supplemented with bFGF ([1]; 0.5 μM): induced rapid differentiation of EpiSCs
- colonies that could self-renew and maintain ALP activity ([1]; A-83-01 treated colonies exposed to 2PD/LIF condition for selection): more than 50%
- effect on EpiSCs under mESC culture condition supplemented with LIF [1]: form more compact and domed colonies that resemble mESC colony morphology and express ALP

— patent US9695395B2, “Generation and maintenance of stem cells” (The Scripps Research Institute, priority 2008, dated 2017)
